PubChem BioAssay (NCI)
Where “and” joins values, the source holds several entries; their conditions need not be identical. Equal values may be shown once.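 1) Cells in 96-well plates. 2) Compound, 48 h, 5 concentrations. 3) Linear interpolation between surrounding doses. 4) Unreached endpoint = highest concentration. At the GI50, growth is halved. At the TGI there is no net growth.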

Legend:
Assay in all cases: NCI-60 cell line screen, 48 h
M14 melanoma = tested on: M14 melanoma
UACC-257 melanoma = tested on: UACC-257 melanoma
ACHN renal = tested on: ACHN renal
HOP-62 NSCLC = tested on: HOP-62 NSCLC
SK-MEL-2 melanoma = tested on: SK-MEL-2 melanoma
MALME-3M melanoma = tested on: MALME-3M melanoma
OVCAR-3 ovarian = tested on: OVCAR-3 ovarian
NCI-H226 lung = tested on: NCI-H226 lung
NCI-H460 lung = tested on: NCI-H460 lung
CAKI-1 renal = tested on: CAKI-1 renal

Structure (SMILES) | TGI (M14 melanoma) | TGI (UACC-257 melanoma) | TGI (ACHN renal) [µM] | TGI (HOP-62 NSCLC) | TGI (SK-MEL-2 melanoma) [µM] | TGI (MALME-3M melanoma) [µM] | TGI (OVCAR-3 ovarian) [µM] | TGI (NCI-H226 lung) [µM] | TGI (NCI-H460 lung) [µM] | GI50 (M14 melanoma) [µM] | GI50 (UACC-257 melanoma) [µM] | GI50 (HOP-62 NSCLC) [µM] | GI50 (NCI-H226 lung) [µM] | GI50 (NCI-H460 lung) [µM] | GI50 (CAKI-1 renal) [µM] | TGI (CAKI-1 renal) | GI50 (ACHN renal) [µM] | GI50 (SK-MEL-2 melanoma) [µM] | GI50 (MALME-3M melanoma) [µM] | GI50 (OVCAR-3 ovarian) [µM]
O=C1CCCC2COc3ccc(O)c1c32 (stereo not given) | > 100 µM | > 100 µM | > 100 | > 100 µM | > 100 | > 100 | > 100 | > 100 | > 100 | – | – | – | – | – | – | – | – | – | – | –
C[C@H]1CC(=O)[C@@]2(O)C#C/C=C\C#C[C@@H]3Nc4c(cc(O)c5c4C(=O)c4ccccc4C5=O)[C@]24O[C@]314 | 0.0645 µM and 0.0371 µM | 0.204 µM and 0.286 µM | 0.0252 | 0.00698 µM and 0.00625 µM | – | 0.518 | > 25 | – | – | 0.0025 | 0.00794 | 0.0025 | 0.0025 | 0.0025 | 0.0025 | 0.0597 µM and 0.0512 µM | – | – | – | –
CCOC(=O)c1cc2cc([N+](=O)[O-])ccc2oc1=O | > 100 µM | > 100 µM | > 100 | > 100 µM | – | > 100 | > 100 | > 100 | > 100 | – | – | – | – | – | – | > 100 µM | – | – | – | –
C=C1C(=O)O[C@H]2[C@H](OC(C)=O)[C@@H](C)CCC/C(C)=C/CC[C@]3(CO3)[C@H](O)C[C@@H]12 | – | 26.1 µM | 4.17 | – | 31.9 | 12.3 | 5.69 | 38.6 | 17.5 | – | 12.4 | – | 16.3 | 5.35 | 1.91 | 4.51 µM | 2.3 | 14.8 | 2.69 | 2.36
CCn1c(-c2cc3ccccc3cc2OC(=O)c2ccccc2)n[nH]c1=S | > 50 µM | > 50 µM | > 50 | > 50 µM | > 50 | > 50 | > 50 | > 50 | – | > 50 | > 50 | > 50 | > 50 | – | 24.7 | > 50 µM | > 50 | 25.5 | > 50 | 3.19
COCCn1cc(-c2csc(-c3c[nH]c4ccc(F)cc34)n2)c2cccnc21 | > 100 µM | – | > 100 | > 100 µM | > 100 | > 100 | > 100 | – | > 100 | 3.14 | – | 2.02 | – | 3.38 | 9.54 | > 100 µM | 5.27 | 3.89 | 4.54 | 3.34
N#CC(C#N)=C/C=C/c1cccc([N+](=O)[O-])c1 | 2.18 µM | 3.94 µM | 2.22 | 6.39 µM | – | 8.87 | 4.36 | – | 2.68 | 0.658 | 1.33 | 1.81 | – | 1.21 | 0.457 | 4 µM | 0.927 | – | 1.69 | 0.533
S=C1OC2C3C4CC5C3C(O1)C1C5C4C21 (stereo not given) | > 100 µM | > 100 µM | > 100 | > 100 µM | – | > 100 | > 100 | > 100 | > 100 | – | – | – | – | – | – | > 100 µM | – | – | – | –
Cc1cc(C(=O)NCCN(C)C)c2nc3ccccc3nc2c1 | > 33.5 µM | 17.2 µM | > 51 | 10.4 µM | 17.2 | 13.8 | 40.4 | 14.3 | – | – | – | – | – | – | – | > 46.5 µM | – | – | – | –
